Data taken from patent EP0955049B1, “6 Beta-Hydroxy - 6 alpha, 17 alpha - dimethylpregn - 4 - ene - 3,20 - dione, as an inhibitor of smooth muscle proliferation” (Wyeth, priority 1994, dated 1995).

Test system: Primary rat aorta smooth muscle cell cultures
Assay: smooth muscle cell proliferation ([3H]-thymidine incorporation)
Assay type: cell-based
Conditions: [3H]-thymidine (0.5 µCi/mL), 24 hours at 37°C, M 199 plus 10% fetal bovine serum, cells per well as percent of control
Text: This utility was established by subjecting the compound to the following standard experimental test procedure:
Primary rat aorta smooth muscle cell cultures grown in media 199 (Gibco ) plus 10% fetal bovine serum (Gibco) were washed with calcium, magnesium free Dulbecco's phosphate buffered saline and trypsinized for five minutes. Cells were scraped from culture dishes with a rubber policeman and centrifuged. Cells were resuspended in M 199 plus 10% fetal bovine serum containing [^3H)-thymidine (0.5 µCi/mL) at 8-15,000 cells/mL, and were placed into plate wells. The novel intermediate was added to each well and the plates were incubated for 24 hours at 37°C. in a 5% CO2 atmosphere. The cultured cells were treated with trichloracetic acid to remove acid soluble proteins, leaving only cell superstructure and DNA. These cells were solubilized, counted by scintillation and the results compared with control to determine the number of cells per well, the difference in cells being expressed as a percent of control.

CC(=O)[C@@]1(C)CC[C@H]2[C@@H]3C[C@@](C)(O)C4=CC(=O)CC[C@]4(C)[C@H]3CC[C@@]21C [6β - Hydroxy - 6α,17α - dimethylpregn - 4 - ene - 3,20 - dione]
IC50: 26.4 µM
